Source: ChEMBL document CHEMBL4840359, “N-Terminus to Arginine Side-Chain Cyclization of Linear Peptidic Neuropeptide Y Y4 Receptor Ligands Results in Picomolar Binding Constants” (J Med Chem, 2021)
Active and inactive are the calls of the source. No cut-off for these calls is given here. Starred links: 1 amine or outer side, 2 acyl side, 3 side chain; linkers in the order of their positions; H or OH if unused. Residues, ends and D or L forms follow the SMILES beside them. Groups on a side chain read outwards from the residue. *: point of attachment. Suc = O=C(CCC(=O)[*:2])[*:1]; NH(CH2)4NH2 = NCCCCN*; CO = O=C([*:1])[*:2]; NH(CH2)3NH2 = NCCCN*

Experiments:
[1] = target: T1, Neuropeptide Y receptor type 4 (Homo sapiens, UniProt P50391); test: Displacement of [3H]UR-KK200 from human neuropeptide Y Y4 receptor expressed in CHO-mtAEQ cells co-expressing Gqi5 measured after 90 mins by scintillation counting analysis; type: cell-based
[2] = target: T1, Neuropeptide Y receptor type 4; test: Displacement of [3H]UR-KK200 from human neuropeptide Y Y4 receptor expressed in CHO-mtAEQ cells co-expressing Gqi5 assessed as fold change in affinity measured after 90 mins by scintillation counting analysis relative to Ac-Arg-Tyr-Arg-Leu-Arg-Tyr-NH2; type: cell-based; conditions: filed as agonist
[3] = target: T1, Neuropeptide Y receptor type 4; test: Agonist activity at human neuropeptide Y Y4 receptor expressed in HEK293T-ARRB1 cells assessed as stimulation of beta-arrestin 1 recruitment by multimode plate reader; type: functional, cell-based
[4] = target: T1, Neuropeptide Y receptor type 4; test: Intrinsic activity at human neuropeptide Y Y4 receptor expressed in HEK293T-ARRB1 cells assessed as stimulation of beta-arrestin 1 recruitment by multimode plate reader relative to hPP; type: functional, cell-based
[5] = target: T1, Neuropeptide Y receptor type 4; test: Agonist activity at human neuropeptide Y Y4 receptor expressed in HEK293T-ARRB2 cells assessed as stimulation of beta-arrestin 2 recruitment by multimode plate reader; type: functional, cell-based
[6] = target: T1, Neuropeptide Y receptor type 4; test: Intrinsic activity at human neuropeptide Y Y4 receptor expressed in HEK293T-ARRB2 cells assessed as stimulation of beta-arrestin 2 recruitment by multimode plate reader relative to hPP; type: functional, cell-based
[7] = target: T1, Neuropeptide Y receptor type 4; test: Agonist activity at human neuropeptide Y Y4 receptor expressed in CHO-mtAEQ cells co-expressing Gqi5 by calcium aequorin assay; type: functional, cell-based
[8] = target: T1, Neuropeptide Y receptor type 4; test: Intrinsic activity at human neuropeptide Y Y4 receptor expressed in CHO-mtAEQ cells co-expressing Gqi5 by calcium aequorin assay; type: functional, cell-based
[9] = target: T2, Neuropeptide Y receptor type 1 (Homo sapiens, UniProt P25929); test: Displacement of [3H]UR-MK299 from human neuropeptide Y Y1 receptor in human SK-N-MC cells measured after 90 mins by scintillation counting analysis; type: cell-based
T2 sequence (P25929 whole entry): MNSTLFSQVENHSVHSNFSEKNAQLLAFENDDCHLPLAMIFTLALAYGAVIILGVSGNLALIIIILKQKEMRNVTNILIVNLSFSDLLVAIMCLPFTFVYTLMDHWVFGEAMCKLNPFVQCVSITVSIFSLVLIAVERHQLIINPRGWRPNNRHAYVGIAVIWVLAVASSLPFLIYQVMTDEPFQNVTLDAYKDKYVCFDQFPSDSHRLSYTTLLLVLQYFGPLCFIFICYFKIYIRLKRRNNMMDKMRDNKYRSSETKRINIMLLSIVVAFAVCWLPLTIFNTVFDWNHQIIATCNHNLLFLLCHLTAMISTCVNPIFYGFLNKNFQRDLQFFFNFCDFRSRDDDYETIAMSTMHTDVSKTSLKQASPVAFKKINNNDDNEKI

[10] = target: T3, Neuropeptide Y receptor type 2 (Homo sapiens, UniProt P49146); test: Displacement of [3H]UR-MK299 from human neuropeptide Y Y2 receptor expressed in CHO cells measured after 90 mins by scintillation counting analysis; type: cell-based
T3 sequence (P49146 whole entry): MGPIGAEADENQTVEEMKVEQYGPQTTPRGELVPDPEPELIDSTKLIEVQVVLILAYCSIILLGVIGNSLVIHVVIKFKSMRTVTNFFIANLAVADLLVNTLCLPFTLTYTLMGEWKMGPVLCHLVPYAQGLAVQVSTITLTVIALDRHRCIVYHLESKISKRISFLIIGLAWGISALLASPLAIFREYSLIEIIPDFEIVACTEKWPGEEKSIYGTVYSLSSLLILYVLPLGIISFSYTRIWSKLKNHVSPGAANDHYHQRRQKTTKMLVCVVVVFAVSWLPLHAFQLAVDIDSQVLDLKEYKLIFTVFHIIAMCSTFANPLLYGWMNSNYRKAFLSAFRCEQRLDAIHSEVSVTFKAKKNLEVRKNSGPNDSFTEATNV

[11] = target: T4, Neuropeptide Y receptor type 5 (Homo sapiens, UniProt Q15761); test: Displacement of [3H]propionyl-pNPY from human neuropeptide Y Y5 receptor in human HEC-1B cells measured after 90 mins by scintillation counting analysis; type: cell-based, HEC-1B cell line
T4 sequence (Q15761 whole entry): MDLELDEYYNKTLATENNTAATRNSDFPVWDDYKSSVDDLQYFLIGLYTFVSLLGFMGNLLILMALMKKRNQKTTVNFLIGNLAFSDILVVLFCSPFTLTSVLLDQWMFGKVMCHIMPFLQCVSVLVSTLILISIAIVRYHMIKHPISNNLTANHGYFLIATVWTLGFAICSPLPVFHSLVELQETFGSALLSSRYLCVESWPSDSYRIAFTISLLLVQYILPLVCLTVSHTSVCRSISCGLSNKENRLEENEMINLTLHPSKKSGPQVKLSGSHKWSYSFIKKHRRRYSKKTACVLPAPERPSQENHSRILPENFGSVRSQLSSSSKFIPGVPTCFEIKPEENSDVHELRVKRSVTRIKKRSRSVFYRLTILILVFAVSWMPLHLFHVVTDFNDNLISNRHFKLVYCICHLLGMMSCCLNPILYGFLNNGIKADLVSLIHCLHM

Homo sapiens [12] = species on record: Homo sapiens; test: Selectivity ratio, Ki for displacement of [3H]UR-MK299 from human neuropeptide Y Y1 receptor in human SK-N-MC cells measured after 90 mins by scintillation counting analysis to Ki for displacement of [3H]UR-KK200 from human neuropeptide Y Y4 receptor expressed in CHO-mtAEQ cells co-expressing Gqi5 measured after 90 mins by scintillation counting analysis; type: cell-based
Homo sapiens [13] = species on record: Homo sapiens; test: Selectivity ratio, Ki for displacement of [3H]UR-MK299 from human neuropeptide Y Y2 receptor expressed in CHO cells measured after 90 mins by scintillation counting analysis to Ki for displacement of [3H]UR-KK200 from human neuropeptide Y Y4 receptor expressed in CHO-mtAEQ cells co-expressing Gqi5 measured after 90 mins by scintillation counting analysis; type: cell-based
Homo sapiens [14] = species on record: Homo sapiens; test: Selectivity ratio, Ki for displacement of [3H]propionyl-pNPY from human neuropeptide Y Y5 receptor in human HEC-1B cells measured after 90 mins by scintillation counting analysis to Ki for displacement of [3H]UR-KK200 from human neuropeptide Y Y4 receptor expressed in CHO-mtAEQ cells co-expressing Gqi5 measured after 90 mins by scintillation counting analysis; type: cell-based

T1 sequence (P50391 whole entry): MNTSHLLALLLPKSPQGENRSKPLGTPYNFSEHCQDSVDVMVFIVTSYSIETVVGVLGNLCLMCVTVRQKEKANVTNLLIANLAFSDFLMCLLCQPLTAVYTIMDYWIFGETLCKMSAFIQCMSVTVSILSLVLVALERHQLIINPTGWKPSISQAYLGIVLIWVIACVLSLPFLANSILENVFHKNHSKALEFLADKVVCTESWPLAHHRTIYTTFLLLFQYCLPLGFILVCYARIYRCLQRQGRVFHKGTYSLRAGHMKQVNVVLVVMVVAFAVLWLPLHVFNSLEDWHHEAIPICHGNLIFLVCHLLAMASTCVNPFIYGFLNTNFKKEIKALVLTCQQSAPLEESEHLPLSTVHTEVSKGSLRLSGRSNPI

SMILES	Ki ([1]; read-out: Ki) [µM]	Ki ([1]; read-out: pKi (converted)) [µM]	fold change (FC) [2]	EC50 ([3]; read-out: pEC50 (converted)) [µM]	Intrinsic activity [4]	EC50 [5] [µM]	Intrinsic activity [6]	EC50 [7] [µM]	Intrinsic activity [8]	Ki ([9]; read-out: pKi (converted)) [µM]	Ki ([10]; read-out: pKi (converted)) [µM]	Ki ([11]; read-out: pKi (converted)) [µM]	Selectivity ratio (Homo sapiens [12])	Selectivity ratio (Homo sapiens [13])	Selectivity ratio (Homo sapiens [14])	Ki ([10]; read-out: Ki) [µM]	EC50 ([3]; read-out: EC50) [µM]	also measured
CC(C)C[C@H](NC(=O)[C@@H]1CC(=O)NCC(=O)N[C@H](CCCNC(=N)N)C(=O)N[C@@H](CCCNC(=N)N)C(=O)N1)C(=O)N[C@@H](CCCNC(=N)N)C(=O)N[C@@H](Cc1ccc(O)cc1)C(N)=O	0.17	0.138	-50	> 10	inactive	> 10	inactive	> 10	inactive									
CC(C)C[C@H](NC(=O)[C@H](CCCNC(=N)N)NC(=O)[C@H](Cc1ccc(O)cc1)NC(=O)[C@H](CCCNC(=N)N)NC(=O)CCC(=O)O)C(=O)N[C@@H](CCCNC(=N)NC(=O)NCCCN)C(=O)N[C@@H](Cc1ccc(O)cc1)C(N)=O	0.053		-16	> 10	inactive	> 10	inactive	> 10	inactive									
CC(=O)N[C@@H](CCCNC(=N)N)C(=O)N[C@@H](Cc1ccc(O)cc1)C(=O)N[C@@H](CCCNC(=N)N)C(=O)N[C@@H](CC(C)C)C(=O)N[C@@H](CCCNC(=N)N)C(=O)N[C@@H](Cc1ccc(O)cc1)C(N)=O					55%		61%		75%	> 3.16	> 3.16	> 3.16	> 830	> 830	> 830			
N=C(N)NCCC[C@H](NC(=O)CCC(=O)O)C(=O)N[C@@H](Cc1ccc(O)cc1)C(=O)N[C@@H](CCCNC(=N)NC(=O)NCCCN)C(=O)N[C@@H](Cc1c[nH]c2ccccc12)C(=O)N[C@@H](CCCNC(=N)N)C(=O)N[C@@H](Cc1ccc(O)cc1)C(N)=O (Suc-RYR([CO-NH(CH2)3NH2])WRY-NH2)	0.063	0.0562	-19	0.123	inactive	0.0891	inactive	0.0912	inactive	> 10	> 3.16	> 3.16	> 150	> 47	> 47	> 3		Ki ([11]; read-out: Ki): > 3 µM
CC(C)C[C@H](NC(=O)[C@@H]1CCCNC(=N)NC(=O)NCCCCNC(=O)CCC(=O)N[C@@H](CCCNC(=N)N)C(=O)N1)C(=O)N[C@@H](CCCNC(=N)N)C(=O)N[C@@H](Cc1ccc(O)cc1)C(N)=O (HELM PEPTIDE1{R.[N=C(NCCC[C@H](N[*:1])C(=O)[*:2])N[*:3]].L.R.Y.[am]}|CHEM1{[O=C(CCC(=O)[*:1])NCCCCNC(=O)[*:2]]}$PEPTIDE1,CHEM1,1:R1-1:R1|PEPTIDE1,CHEM1,2:R3-1:R2$$$V2.0)	0.0014		2.4		87%	0.0933	83%	0.363	61%	> 3.16	> 3.16	> 1000	> 2100	> 2100	> 7100	> 3	0.18	Ki ([9]; read-out: Ki): > 3 µM; Ki ([11]; read-out: Ki): > 10 µM
CC(C)C[C@H](NC(=O)[C@H](CCCNC(=N)NC(=O)NCCCCN)NC(=O)[C@H](CCCNC(=N)N)NC(=O)CCC(=O)O)C(=O)N[C@@H](CCCNC(=N)N)C(=O)N[C@@H](Cc1ccc(O)cc1)C(N)=O (Suc-RR([CO-NH(CH2)4NH2])LRY-NH2)	0.01		-2.9		71%	0.759	60%			> 10	> 10	> 10	> 1000	> 1000	> 1000	> 10	0.99	Ki ([9]; sk-n-mc, read-out: Ki): > 10 µM
CC(C)C[C@@H]1NC(=O)[C@H](CCCNC(=N)N)NC(=O)[C@H](Cc2ccc(O)cc2)NC(=O)[C@H](CCCNC(=N)N)NC(=O)CCC(=O)NCCCNC(=O)NC(=N)NCCC[C@@H](C(=O)N[C@@H](Cc2ccc(O)cc2)C(N)=O)NC1=O	0.14		-41	> 10	inactive	> 10	inactive	> 10	inactive									
CC(C)C[C@H](NC(=O)[C@H](CCCNC(=N)NC(=O)NCCCCN)NC(=O)[C@H](Cc1ccc(O)cc1)NC(=O)[C@H](CCCCN)NC(=O)CCC(=O)O)C(=O)N[C@@H](CCCNC(=N)N)C(=O)N[C@@H](Cc1ccc(O)cc1)C(N)=O (Suc-KYR([CO-NH(CH2)4NH2])LRY-NH2)	0.0071	0.00692	-2.1		57%	0.295	61%			> 10	> 10	> 10	> 1400	> 1400	> 1000	> 10	0.27	Ki ([9]; sk-n-mc, read-out: Ki): > 10 µM; Ki ([11]; hec-1b cell line, read-out: Ki): > 10 µM
